Data reported in patent US9920042B2, “Compounds for use in the treatment of mycobacterial infections” (Universite de Droit et de la Sante de Lille 2, priority 2012, dated 2018).
Where two headings read alike, the source gives them in different places.

Experiments:
[1] = target: EthR protein (Mycobacterium tuberculosis, UniProt P9WMC1); experiment: TSA test (Thermal Shift Assay), fluorescence with Sypro Orange; type: binding, M. tuberculosis; conditions: melting temperature shift of EthR with ligand vs protein alone
[2] = tested on: M. tuberculosis alone or macrophages infected by M. tuberculosis; experiment: Potentiation of ethionamide cell test (High Content Screening); type: cell-based; conditions: ligand concentration potentiating ten times the activity of ethionamide, ethionamide constant at 0.1 μg/mL (1/10th of its CMI99)

Chain of EthR protein (P9WMC1 whole entry, looked up): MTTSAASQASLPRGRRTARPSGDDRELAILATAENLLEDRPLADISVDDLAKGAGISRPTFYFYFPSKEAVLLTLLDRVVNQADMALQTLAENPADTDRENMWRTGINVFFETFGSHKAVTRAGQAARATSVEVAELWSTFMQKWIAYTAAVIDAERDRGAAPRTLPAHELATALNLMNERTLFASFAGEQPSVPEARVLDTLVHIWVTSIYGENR

Structure (SMILES) | ΔTm [1] | EC50 ([2]; read-out: EC50) | EC50 [2]
CC(C)CCNS(=O)(=O)c1ccc(-c2csc(CC#N)n2)cc1 [Compound 17, 4-(2-(cyanomethyl)thiazol-4-yl)-N-isopentyl benzene sulfonamide] | 5.3 °C | 7.9 µM | 
CC(C)CCNS(=O)(=O)c1ccc(-c2csc(CC(N)=O)n2)cc1 [Compound 21, 2-(4-(4-(N-isopentylsulfamoyl)phenyl)thiazol-2-yl)acetamide] | 4.6 °C | 5 µM | 
Cc1nc(-c2ccc(S(=O)(=O)NCCC(C)(C)C)cc2)cs1 [Compound 23, N-(3,3-dimethylbutyl)-4-(2-methylthiazol-4-yl)benzene sulfonamide] | 2.3 °C | > 20 µM | 
Cc1nc(-c2ccc(S(=O)(=O)NCC(F)(F)C(F)(F)F)cc2)cs1 [Compound 25, 4-(2-methylthiazol-4-yl)-N-(2,2,3,3,3-pentafluoropropyl)benzene sulfonamide] | 8.6 °C | > 20 µM | 
Cc1nc(-c2ccc(S(=O)(=O)NCC(F)(F)F)cc2)cs1 [Compound 26, 4-(2-methylthiazol-4-yl)-N-(2,2,2-trifluoroethyl)benzene sulfonamide] | 6.3 °C | 7.9 µM | 
Cc1nc(-c2ccc(S(=O)(=O)NCCCC(F)(F)F)cc2)cs1 [Compound 27, 4-(2-methylthiazol-4-yl)-N-(4,4,4-trifluorobutyl)benzene sulfonamide] | 6.6 °C | > 2.5 µM | 
Cc1nc(-c2ccc(S(=O)(=O)NCC(F)(F)C(F)(F)C(F)(F)F)cc2)cs1 [Compound 28, N-(2,2,3,3,4,4,4-heptafluorobutyl)-4-(2-methylthiazol-4-yl)benzene sulfonamide] | 7.3 °C |  | > 2.5 µM
COC(=O)Cc1nc(-c2ccc(S(=O)(=O)NCCC(F)(F)F)cc2)cs1 [Compound 33, 2-(4-(4-(N-(3,3,3-trifluoropropyl)sulfamoyl)phenyl)thiazol-2-yl)methyl acetate] | 9.5 °C | 0.86 µM | 
CCOC(=O)Cc1nc(-c2ccc(S(=O)(=O)NCCC(F)(F)F)cc2)cs1 [Compound 34] | 0.15 °C | 0.15 µM | 
CC(C)NC(=O)Cc1nc(-c2ccc(S(=O)(=O)NCCC(F)(F)F)cc2)cs1 [Compound 36, N-isopropyl-2-(4-(4-(N-(3,3,3-trifluoropropyl)sulfamoyl)phenyl)thiazol-2-yl)acetamide] |  | 0.21 µM | 
CC(C)(C)S(=O)(=O)Cc1nc(-c2ccc(S(=O)(=O)NCCC(F)(F)F)cc2)cs1 [Compound 39, 4-(2-(tert-butylsulfonylmethyl)thiazol-4-yl)-N-(3,3,3-trifluoropropyl)-benzene sulfonamide] | 7.3 °C | 0.2 µM | 
Cc1csc(-c2ccc(S(=O)(=O)NCCC(F)(F)F)cc2)n1 [Compound 41, 4-(4-methylthiazol-2-yl)-N-(3,3,3-trifluoropropyl)benzene sulfonamide] | 6.8 °C | 0.66 µM | 
O=S(=O)(NCCC(F)(F)F)c1ccc(-c2nc3ccccc3s2)cc1 [Compound 42, 4-(benzo[d]thiazol-2-yl)-N-(3,3,3-trifluoropropyl)benzene sulfonamide] |  | 0.3 µM | 
CC(C)CCCc1nc(-c2ccc(C(=O)NCCC(F)(F)F)cc2)cs1 [Compound 47, 4-(2-(4-methylpentyl)thiazol-4-yl)-N-(3,3,3-trifluoropropyl)benzamide] | 13.0 °C | 0.03 µM | 
CC(C)(C)S(=O)(=O)Cc1nc(-c2ccc(C(=O)NCCC(F)(F)F)cc2)cs1 [Compound 50, 4-(2-(tert-butylsulfonylmethyl)thiazol-4-yl)-N-(3,3,3-trifluoropropyl)-benzamide] | 9.6 °C | 0.041 µM | 
CCOC(=O)Cc1nc(-c2ccc(C(=O)NCCC(F)(F)F)cc2)cs1 [Compound 52] | 10.1 °C | 0.19 µM | 
CC(C)OC(=O)Cc1nc(-c2ccc(C(=O)NCCC(F)(F)F)cc2)cs1 [Compound 53, 2-(4-(4-(3,3,3-trifluoropropylcarbamoyl)phenyl)thiazol-2-yl(isopropyl acetate] | 13.2 °C | 0.33 µM | 
CCOC(=O)c1nc(-c2ccc(C(=O)NCCC(F)(F)F)cc2)cs1 [Compound 54, 4-(4-(3,3,3-trifluoropropylcarbamoyl)phenyl)thiazole-2-ethyl carboxylate] | 9.6 °C | > 2.5 µM | 
CC(C)OC(=O)c1nc(-c2ccc(C(=O)NCCC(F)(F)F)cc2)cs1 [Compound 55, 4-(4-(3,3,3-trifluoropropylcarbamoyl)phenyl)thiazole-2-isopropyl carboxylate] | 8.2 °C | 0.73 µM | 
O=C(NCCC(F)(F)F)c1ccc(-c2cscn2)cc1 [Compound 56, 4-(thiazol-4-yl)-N-(3,3,3-trifluoropropyl)benzamide] | 8.1 °C | 0.36 µM | 

Structure (SMILES) | ΔTm [1] | EC50 ([2]; read-out: EC50) | EC50 [2]
Cc1nc(-c2ccc(C(=O)NCCC(F)(F)F)cc2)c(F)s1 [Compound 62, 4-(5-fluoro-2-mthylthiazol-4-yl)-N-(3,3,3-trifluoropropyl)benzamide] |  | 0.055 µM | 
Cc1nc(-c2ccc(C(=O)NCCC(F)(F)F)cc2)c(Cl)s1 [Compound 64, 4-(5-chloro-2-methylthiazol-4-yl)-N-(3,3,3-trifluoropropyl)benzamide] | 8.7 °C | 0.35 µM | 
Cc1nc(-c2ccc(C(=O)NCCC(F)(F)F)nc2)cs1 [Compound 67, 5-(2-methylthiazol-4-yl)-N-(3,3,3-trifluoropropyl)picolinamide] |  | 0.12 µM | 
Cc1nc(-c2ccc(C(=O)NCCC(F)(F)F)cn2)cs1 [Compound 71, 6-(2-methylthiazol-4-yl)-N-(3,3,3-trifluoropropyl)nicotinamide] |  | 1.7 µM | 
Cc1nc(-c2ccc(C(=O)NCCC(F)(F)F)cc2)co1 [Compound 72, 4-(2-methyloxazol-4-yl)-N-(3,3,3-trifluoropropyl)benzamide] |  | 0.18 µM | 
Cc1nc(-c2ccc(C(=O)NCCC(F)(F)F)cc2)no1 [Compound 75, 4-(5-methyl-1,2,4-oxadiazol-3-yl)-N-(3,3,3-trifluoropropyl)benzamide] |  | 0.062 µM | 
Cc1noc(-c2ccc(C(=O)NCCC(F)(F)F)cc2)n1 [Compound 78, 4-(3-methyl-1,2,4-oxadiazol-5-yl)-N-(3,3,3-trifluoropropyl)benzamide] |  | 0.21 µM | 
Cc1nnc(-c2ccc(C(=O)NCCC(F)(F)F)cc2)o1 [Compound 80, 4-(5-methyl-1,3,4-oxadiazol-2-yl)-N-(3,3,3-trifluoropropyl)benzamide] |  | 0.96 µM | 
Cc1nnc(-c2ccc(C(=O)NCCC(F)(F)F)cc2)s1 [Compound 83, 4-(5-methyl-1,3,4-thiadiazol-2-yl)-N-(3,3,3-trifluoropropyl)benzamide] |  | 1.4 µM | 
O=C(NCCC(F)(F)F)c1ccc(-c2nsc(CO)n2)cc1 [Compound 90, 4-(5-(hydroxymethyl)-1,2,4-thiadiazol-3-yl)-N-(3,3,3-trifluoropropyl)-benzamide] |  | 0.13 µM | 
[N-]=[N+]=Nc1ccc(C(=O)NCCC(F)(F)F)cc1 [Compound 92, 4-azido-N-(3,3,3-trifluoropropyl)benzamide] | 6.0 °C | 1.1 µM | 
CC(C)CCc1cn(-c2ccc(C(=O)NCCC(F)(F)F)cc2)nn1 [Compound 93, 4-(4-isopentyl-1H-1,2,3-triazol-1-yl)-N-(3,3,3-trifluoropropyl)benzamide] | 3.8 °C | > 10 µM | 
CC(C)Cc1cn(-c2ccc(C(=O)NCCC(F)(F)F)cc2)nn1 [Compound 94, 4-(4-isobutyl-1H-1,2,3-triazol-1-yl)-N-(3,3,3-trifluoropropyl)benzamide] | 4.1 °C | 1.2 µM | 
O=C(NCCC(F)(F)F)c1ccc(-n2cc(C3CC3)nn2)cc1 [Compound 95, 4-(4-cyclopropyl-1H-1,2,3-triazol-1-yl)-N-(3,3,3-trifluoropropyl)-benzamide] | 3.5 °C | 1.7 µM | 
O=C(NCCC(F)(F)F)c1ccc(-n2cc(CCO)nn2)cc1 [Compound 97, 4-(4-(2-hydroxyethyl)-1H-1,2,3-triazol-1-yl)-N-(3,3,3-trifluoropropyl)-benzamide] | 1.2 °C | 2 µM | 
CCCS(=O)(=O)NCc1nc(-c2ccc(C(=O)NCCC(F)(F)F)cc2)cs1 [Compound 103, 4-(2-(propylsulfonamidomethyl)thiazol-4-yl)-N-(3,3,3-trifluoropropyl)benzamide] | 6.6 °C | 0.32 µM | 
O=C(NCCC(F)(F)F)c1ccc(-c2csc(CNS(=O)(=O)c3ccccc3)n2)cc1 [Compound 104, 4-(2-(phenylsulfonamidomethyl)thiazol-4-yl)-N-(3,3,3-trifluoro-propyl)benzamide] | 1.2 °C | 0.15 µM | 
O=S(=O)(NCC#Cc1ccc(S(=O)(=O)NCCC(F)(F)F)cc1)c1ccccc1 [Compound 106, 4-(3-(phenylsulfonamido)prop-1-ynyl)-N-(3,3,3-trifluoropropyl)-benzene sulfonamide] | 3.3 °C | 1.8 µM | 
CS(=O)(=O)NCC#Cc1ccc(S(=O)(=O)NCCC(F)(F)F)cc1 [Compound 108, 4-(3-(methylsulfonamido)prop-1-ynyl)-N-(3,3,3-trifluoropropyl)-benzene sulfonamide] | 1.4 °C | > 10 µM | 
O=C(NCCC(F)(F)F)c1ccc(C#CCNS(=O)(=O)c2ccccc2)cc1 [Compound 112, 4-(3-(phenylsulfonamido)prop-1-ynyl)-N-(3,3,3-trifluoropropyl)-benzamide] | 4.2 °C | 0.23 µM | 
